Data on 17 compounds can be found in ChEMBL document CHEMBL3714713, “4-phenyl-pyrimido [4,5-b] indole derivatives” (2004).

The source made the active and inactive calls. No cut-off for these calls is given here. Bounds are passed on as bounds.

Assay [1] deals with Mus musculus. The assay is described as follows: Inhibition of anti-CD3 antibody-induced IL2 production in Balb/c mouse dosed intravenously 5 mins before anti-CD3 antibody injection and measured 2 hrs post-challenge by ELISA. It is filed as functional, organism-based. A general note: In an ELISA, binding on a coated surface is turned into a signal by an enzyme label.
Assay [2] relates to Mus musculus. Kind of assay: Inhibition of anti-CD3 antibody-induced IFNgamma production in Balb/c mouse dosed intravenously 5 mins before anti-CD3 antibody injection and measured 2 hrs post-challenge by ELISA. It is filed as functional, organism-based.
Assay [3] has as its system Mus musculus. Kind of assay: Inhibition of anti-CD3 antibody-induced IL4 production in Balb/c mouse dosed intravenously 5 mins before anti-CD3 antibody injection and measured 2 hrs post-challenge by ELISA. It is filed as functional, organism-based.
In assay [4] the target is T1, Dual specificity mitogen-activated protein kinase kinase 7 (Homo sapiens, UniProt O14733).
T1 sequence (O14733 whole entry): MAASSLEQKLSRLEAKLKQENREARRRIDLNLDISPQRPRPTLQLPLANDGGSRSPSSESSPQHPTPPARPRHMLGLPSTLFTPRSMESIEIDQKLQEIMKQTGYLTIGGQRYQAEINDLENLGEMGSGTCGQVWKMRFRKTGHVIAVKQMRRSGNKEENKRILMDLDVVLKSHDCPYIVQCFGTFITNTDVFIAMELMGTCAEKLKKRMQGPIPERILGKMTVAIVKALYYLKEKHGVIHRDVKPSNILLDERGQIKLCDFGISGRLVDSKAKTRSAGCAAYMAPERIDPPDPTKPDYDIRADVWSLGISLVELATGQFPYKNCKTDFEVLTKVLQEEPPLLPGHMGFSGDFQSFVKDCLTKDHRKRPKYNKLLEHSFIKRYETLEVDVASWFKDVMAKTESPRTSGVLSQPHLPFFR
The assay is described as follows: Inhibition of GST-tagged human MKK7 expressed in Escherichia coli (BL21(DE3) pLysS) co-expressing human MEKK catalytic domain using biotinylated and GST-tagged rat GST-KN-SAPKalpha substrate incubated for 1 hr by time-resolved fluorescence based assay.

For the compound `COc1ccc2[nH]c3ncnc(-c4ccccc4)c3c2c1`, the result in assay [1], in assay [2] and in assay [3] was Active.
Usually IC50 stands for the concentration at which inhibition is half-maximal. High values mean lower potency, low ones higher potency. Turning to `Oc1ccc2[nH]c3ncnc(-c4ccccc4)c3c2c1`, the outcome in assay [1], in assay [2] and in assay [3] was Active. For the same compound, the IC50 in assay [4] is ≤ 1000 nM.
`COc1ccc(-c2ncnc3[nH]c4ccc(C#N)cc4c23)cc1`: the outcome in assay [1], in assay [2] and in assay [3] was Active.
`N#Cc1ccc2[nH]c3ncnc(-c4ccc(F)cc4)c3c2c1`: the outcome in assay [1], in assay [2] and in assay [3] was Active.
With `N#Cc1ccc2[nH]c3ncnc(-c4cccc(N)c4)c3c2c1`, the result in assay [1], in assay [2] and in assay [3] was Active.
As for `COc1ccc(-c2ncnc3[nH]c4ccc(C(N)=O)cc4c23)cc1`, the result in assay [1], in assay [2] and in assay [3] was Active.
Take `Oc1ccc2[nH]c3ncnc(-c4ccc(F)cc4)c3c2c1`: the outcome in assay [1], in assay [2] and in assay [3] was Active. Moreover, in assay [4], the IC50 is ≤ 1000 nM.
Regarding `N#Cc1ccc2[nH]c3nc(N)nc(-c4ccccc4)c3c2c1`, the outcome in assay [1], in assay [2] and in assay [3] was Active.
As for `COc1ccc(-c2ncnc3[nH]c4ccc(O)cc4c23)cc1`, the outcome in assay [1], in assay [2] and in assay [3] was Active. In addition, in assay [4], the IC50 was ≤ 1000 nM.
Consider `NC(=O)c1ccc2[nH]c3ncnc(-c4ccc(F)cc4)c3c2c1`, for which the result in assay [1], in assay [2] and in assay [3] was Active. Besides, the IC50 in assay [4] was ≤ 1000 nM.
Consider `COc1ccc(-c2ncnc3[nH]c4ccc(OC)cc4c23)cc1`, for which the outcome in assay [1], in assay [2] and in assay [3] was Active.
As for `N#Cc1ccc2[nH]c3ncnc(-c4ccccc4)c3c2c1`, the result in assay [1], in assay [2] and in assay [3] was Active.
As to `NC(=O)c1ccc2[nH]c3ncnc(-c4ccccc4)c3c2c1`, the outcome in assay [1], in assay [2] and in assay [3] was Active. For the same compound, the IC50 in assay [4] was ≤ 1000 nM.
For `CN(C)c1ccc(-c2ncnc3[nH]c4ccc(C(N)=O)cc4c23)cc1`, the result in assay [1], in assay [2] and in assay [3] was Active. The IC50 in assay [4] came to 1000 nM.
With `NC(=O)c1ccc2[nH]c3ncnc(-c4cccc(N)c4)c3c2c1`, the result in assay [1], in assay [2] and in assay [3] was Active.
Consider `NC(=O)c1ccc2[nH]c3nc(N)nc(-c4ccccc4)c3c2c1`, for which the result in assay [1], in assay [2] and in assay [3] was Active. In addition, the IC50 in assay [4] was ≤ 1000 nM.
For `CN(C)c1ccc(-c2ncnc3[nH]c4ccc(C#N)cc4c23)cc1`, the outcome in assay [1], in assay [2] and in assay [3] was Active.
